Measurements as given in patent US20100267561A1, “HERBICIDAL PYRIDAZINONE DERIVATIVES” (priority 2007, published 2010).

Key:
Assay in all cases: Test B pre-/postemergence plant response
Format in all cases: in vivo
[1] = test system: pigweed (Amaranthus retroflexus); conditions: for Pigweed plant response rating: 8 g ai/ha
Summary of the method: (§1)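 Preemergence and postemergence (plants 2-18 cm, 1- to 4-leaf stage) applications used test chemicals in a non-phytotoxic solvent with surfactant. Plants were held in a greenhouse 13 to 15 days, then rated visually against controls on a 0-100 scale (0 no effect, 100 complete control).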

[2] = test system: surinam grass (Brachiaria decumbens); conditions: for Surinam Grass plant response rating: 8 g ai/ha
Summary of the method: as §1

[3] = test system: common ragweed (Ambrosia elation); conditions: for Ragweed plant response rating: 8 g ai/ha
Summary of the method: as §1

[4] = test system: johnsongrass (Sorghum halepense); conditions: for Johnsongrass plant response rating: 8 g ai/ha
Summary of the method: as §1

[5] = test system: eastern black (E.B.) nightshade (Solanum ptycanthum); conditions: Preemergence
Summary of the method: as §1

[6] = test system: common (oilseed) sunflower (Helianthus annuus); conditions: Preemergence
Summary of the method: as §1

[7] = test system: Italian ryegrass (Lolium multiflorum); conditions: for Ryegrass, Italian plant response rating: 8 g ai/ha
Summary of the method: as §1

corn (Zea mays) = conditions: for Corn plant response rating: 8 g ai/ha
Summary of the method: as §1

kochia (Kochia scoparia) = conditions: for Kochia plant response rating: 8 g ai/ha
Summary of the method: as §1

[8] = test system: goosegrass (Eleusine indica); conditions: for Goosegrass plant response rating: 8 g ai/ha
Summary of the method: as §1

[9] = test system: Russian thistle (Salsola iberica); conditions: Preemergence
Summary of the method: as §1

[10] = test system: giant foxtail (Setaria faberii); conditions: for Foxtail, Giant plant response rating: 8 g ai/ha
Summary of the method: as §1

[11] = test system: green foxtail (Setaria viridis); conditions: for Foxtail, Green plant response rating: 8 g ai/ha
Summary of the method: as §1

[12] = test system: yellow nutsedge (Cyperus esculentus); conditions: for Nutsedge, Yellow plant response rating: 8 g ai/ha
Summary of the method: as §1

[13] = Postemergence, 16 g ai/ha, scale 0 to 100
[14] = Postemergence, 31 g ai/ha, scale 0 to 100, 0 no effect, 100 complete control
[15] = Postemergence, 62 g ai/ha, scale 0 to 100, 0 no effect, 100 complete control
[16] = Preemergence, 16 g ai/ha, scale 0 to 100 (0 no effect, 100 complete control)
[17] = Preemergence, 31 g ai/ha, 0 to 100 scale, 0 no effect, 100 complete control
[18] = Preemergence, 62 g ai/ha, scale 0 to 100
[19] = 16 g ai/ha, scale 0 to 100 (0 no effect, 100 complete control)
[20] = 31 g ai/ha, 0 to 100 scale, 0 no effect, 100 complete control

Cc1cc(-c2ccc(Cl)cc2)nn1-c1c(OC(=O)CC(C)C)cnn(C)c1=O [Compound 37]
Pigweed plant response rating ([1]; postemergence, 0-100 scale): 0
Plant response rating, Pigweed [1, 13]: 0
Plant response rating, Pigweed [1, 14]: 0
Plant response rating, Pigweed [1, 15]: 0
Plant response rating, Pigweed [1, 16]: 0
Plant response rating, Pigweed [1, 17]: 0
Plant response rating, Pigweed [1, 18]: 0
Pigweed plant response rating ([1]; Preemergence, scale 0 to 100): 0
Surinam Grass plant response rating ([2]; postemergence, 0-100 scale): 95
Plant response rating, Surinam Grass [2, 13]: 100
Plant response rating, Surinam Grass [2, 15]: 100
Plant response rating, Surinam Grass [2, 16]: 85
Plant response rating, Surinam Grass [2, 17]: 98
Plant response rating, Surinam Grass [2, 18]: 100
Surinam Grass plant response rating ([2]; Preemergence, scale 0 to 100): 65
Ragweed plant response rating ([3]; postemergence, 0-100 scale): 0
Plant response rating, Ragweed [3, 13]: 0
Plant response rating, Ragweed [3, 14]: 0
Plant response rating, Ragweed [3, 15]: 0
Plant response rating, Ragweed [3, 16]: 0
Plant response rating, Ragweed [3, 17]: 0
Plant response rating, Ragweed [3, 18]: 0
Ragweed plant response rating ([3]; Preemergence, scale 0 to 100): 0
Johnsongrass plant response rating ([4]; postemergence, 0-100 scale): 0
Plant response rating, Johnsongrass [4, 13]: 55
Plant response rating, Johnsongrass [4, 14]: 95
Plant response rating, Johnsongrass [4, 15]: 100
Plant response rating, Johnsongrass [4, 16]: 50
Plant response rating, Johnsongrass [4, 17]: 80
Plant response rating, Johnsongrass [4, 18]: 80
Johnsongrass plant response rating ([4]; Preemergence, scale 0 to 100): 50
Plant response rating, Nightshade, E. B. [5, 19]: 0
Plant response rating, Nightshade, E. B. [5, 20]: 0
Plant response rating, Nightshade, E. B. ([5]; 62 g ai/ha, scale 0 to 100): 0
Nightshade, E. B. plant response rating ([5]; 8 g ai/ha, scale 0 to 100): 0
Plant response rating, Sunflower [6, 19]: 0
Plant response rating, Sunflower [6, 20]: 0
Plant response rating, Sunflower ([6]; 62 g ai/ha, scale 0 to 100): 30
Sunflower plant response rating ([6]; 8 g ai/ha, scale 0 to 100): 0
Ryegrass, Italian plant response rating ([7]; postemergence, 0-100 scale): 60
Plant response rating, Ryegrass, Italian [7, 13]: 90
Plant response rating, Ryegrass, Italian [7, 14]: 98
Plant response rating, Ryegrass, Italian [7, 15]: 100
Plant response rating, Ryegrass, Italian [7, 16]: 90
Plant response rating, Ryegrass, Italian [7, 17]: 98
Plant response rating, Ryegrass, Italian [7, 18]: 100
Ryegrass, Italian plant response rating ([7]; Preemergence, scale 0 to 100): 45
Corn plant response rating (corn (Zea mays); postemergence, 0-100 scale): 45
Plant response rating, Corn (corn (Zea mays); [13]): 95
Plant response rating, Corn (corn (Zea mays); [14]): 100
Plant response rating, Corn (corn (Zea mays); [15]): 100
Plant response rating, Corn (corn (Zea mays); [16]): 40
Plant response rating, Corn (corn (Zea mays); [17]): 95
Plant response rating, Corn (corn (Zea mays); [18]): 98
Corn plant response rating (corn (Zea mays); Preemergence, scale 0 to 100): 40
Kochia plant response rating (kochia (Kochia scoparia); postemergence, 0-100 scale): 0
Plant response rating, Kochia (kochia (Kochia scoparia); [13]): 0
Plant response rating, Kochia (kochia (Kochia scoparia); [14]): 0
Plant response rating, Kochia (kochia (Kochia scoparia); [15]): 0
Plant response rating, Kochia (kochia (Kochia scoparia); [16]): 0
Plant response rating, Kochia (kochia (Kochia scoparia); [17]): 0
Plant response rating, Kochia (kochia (Kochia scoparia); [18]): 0
Kochia plant response rating (kochia (Kochia scoparia); Preemergence, scale 0 to 100): 0
Goosegrass plant response rating ([8]; postemergence, 0-100 scale): 100
Plant response rating, Goosegrass [8, 13]: 100
Plant response rating, Goosegrass [8, 14]: 100
Plant response rating, Goosegrass [8, 15]: 100
Plant response rating, Goosegrass [8, 16]: 90
Plant response rating, Goosegrass [8, 17]: 98
Plant response rating, Goosegrass [8, 18]: 100
Goosegrass plant response rating ([8]; Preemergence, scale 0 to 100): 75
Plant response rating, Russian Thistle [9, 19]: 0
Plant response rating, Russian Thistle [9, 20]: 0
Plant response rating, Russian Thistle ([9]; 62 g ai/ha, scale 0 to 100): 90
Russian Thistle plant response rating ([9]; 8 g ai/ha, scale 0 to 100): 0
Foxtail, Giant plant response rating ([10]; postemergence, 0-100 scale): 30
Plant response rating, Foxtail, Giant [10, 13]: 70
Plant response rating, Foxtail, Giant [10, 14]: 85
Plant response rating, Foxtail, Giant [10, 15]: 100
Plant response rating, Foxtail, Giant [10, 16]: 100
Plant response rating, Foxtail, Giant [10, 17]: 100
Plant response rating, Foxtail, Giant [10, 18]: 100
Foxtail, Giant plant response rating ([10]; Preemergence, scale 0 to 100): 100
Foxtail, Green plant response rating ([11]; postemergence, 0-100 scale): 60
Plant response rating, Foxtail, Green [11, 13]: 75
Plant response rating, Foxtail, Green [11, 14]: 80
Plant response rating, Foxtail, Green [11, 15]: 85
Plant response rating, Foxtail, Green [11, 16]: 98
Plant response rating, Foxtail, Green [11, 17]: 100
Plant response rating, Foxtail, Green [11, 18]: 100
Foxtail, Green plant response rating ([11]; Preemergence, scale 0 to 100): 40
Nutsedge, Yellow plant response rating ([12]; postemergence, 0-100 scale): 0
Plant response rating, Nutsedge, Yellow [12, 13]: 0
Plant response rating, Nutsedge, Yellow [12, 14]: 0
Plant response rating, Nutsedge, Yellow [12, 15]: 0
Plant response rating, Nutsedge, Yellow [12, 16]: 0
Plant response rating, Nutsedge, Yellow [12, 17]: 0
Plant response rating, Nutsedge, Yellow [12, 18]: 0
Nutsedge, Yellow plant response rating ([12]; Preemergence, scale 0 to 100): 0
